Data published in the supplement of paper PMC10627819.

Tests used:
[1] = system: B. subtilis 168; assay: fitness (endpoint OD595 vs no drug) (fraction); higher = more growth
Procedure, shortened: (§1)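 Volumes were 30 µl per well, or 55 µl for S. pneumoniae, in 384-well plates inoculated at OD595 0.01. Media were TSB, LB Lennox or CY at 37 °C, and OD595 was read every 30 min for 14 h with first-reading background subtraction. Fitness is the ratio of optical density at stationary-phase entry to the robust mean of no-drug controls. That ratio is capped at 1.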

[2] = system: S. aureus DSM 20231; assay: as above
Procedure, shortened: as §1

[3] = system: B. subtilis 168; assay: Bliss interaction score (quartile over a dose matrix) (fitness difference); higher = more antagonism (negative = synergy)
Procedure, shortened: (§2)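 Fitness here means normalised growth, inferred for single drugs from the combination data. Growth was OD595 at entry into stationary phase, divided by the plate's robust no-drug mean and capped at 1. The Bliss score is observed minus expected fitness, with the expectation being the product, and its quartiles span technical, biological and donor/recipient replicates.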

[4] = system: S. aureus DSM 20231; assay: as above
Procedure, shortened: as §2

[5] = system: S. aureus Newman; assay: as above
Procedure, shortened: as §2

[6] = system: S. pneumoniae D39V; assay: as above
Procedure, shortened: as §2

[7] = system: S. pneumoniae D39V; assay: fitness (endpoint OD595 vs no drug) (fraction); higher = more growth
Procedure, shortened: as §1

[8] = system: S. aureus Newman; assay: as above; settings: main component drawn
Procedure, shortened: as §1
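Wherever Bliss interaction score (quartile over a dose matrix) is given: first quartile when negative (synergy) and third quartile when positive (antagonism).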

CCCCCCCCCC(=O)N[C@@H](Cc1c[nH]c2ccccc12)C(=O)N[C@H](CC(N)=O)C(=O)N[C@@H](CC(=O)O)C(=O)N[C@@H]1C(=O)NCC(=O)N[C@@H](CCCN)C(=O)N[C@@H](CC(=O)O)C(=O)N[C@H](C)C(=O)N[C@@H](CC(=O)O)C(=O)NCC(=O)N[C@H](CO)C(=O)N[C@@H]([C@H](C)CC(=O)O)C(=O)N[C@@H](CC(=O)c2ccccc2N)C(=O)O[C@@H]1C [Daptomycin] + COc1cc(Cc2cnc(N)nc2N)cc(OC)c1OC [Trimethoprim]
fitness, [1], one replicate
Settings | partner 0.1 µg/mL | partner 0.125 µg/mL | partner 0.2 µg/mL | partner 0.25 µg/mL | partner 0.4 µg/mL | partner 0.5 µg/mL | partner 1 µg/mL | partner 2 µg/mL
first compound 0.125 µg/mL | 0.908 | 0.711 | 0.755 | – | 0.533 | – | 0.328 | 0.251
first compound 0.25 µg/mL | ≥ 1 | – | 0.756 | – | 0.555 | – | 0.226 | 0.161
first compound 0.5 µg/mL | 0.918 | – | 0.657 | – | 0.512 | – | 0.144 | 0.149
first compound 1 µg/mL | – | 0.35 | – | 0.22 | – | 0.115 | – | –

fitness
Settings | first compound 0.125 µg/mL | first compound 0.25 µg/mL | first compound 0.5 µg/mL | first compound 1 µg/mL | first compound 2 µg/mL
[1], partner 0.125 µg/mL | – | 0.692 | 0.659 | – | –
[1], partner 0.25 µg/mL | – | – | 0.552 | – | –
[1], partner 0.5 µg/mL | 0.454 | – | 0.446 | – | –
[2], partner 0.125 µg/mL | – | – | 0.788 | 0.745 | 0.839
[2], partner 0.25 µg/mL | 0.573 | 0.553 | 0.645 | 0.657 | 0.695
[2], partner 0.5 µg/mL | 0.128 | 0.0962 | – | 0.304 | 0.37
[2], partner 1 µg/mL | 0.0396 | 0.0212 | 0.0174 | – | –

Settings | Bliss interaction score
[3] | 0.0723
[4] | -0.0443
[5] | 0.0713
[6] | -0.192

CC1(C)S[C@@H]2[C@H](NC(=O)[C@H](N)c3ccc(O)cc3)C(=O)N2[C@H]1C(=O)O [Amoxicillin] + CC(=O)NC[C@H]1CN(c2ccc(N3CCOCC3)c(F)c2)C(=O)O1 [Linezolid]
Settings | fitness
[2], first compound 0.0625 µg/mL, partner 0.125 µg/mL | 0.652
[2], first compound 0.0625 µg/mL, partner 0.25 µg/mL | 0.427
[2], first compound 0.0625 µg/mL, partner 0.5 µg/mL | 0.161
[2], first compound 0.125 µg/mL, partner 0.125 µg/mL | 0.368
[2], first compound 0.125 µg/mL, partner 0.25 µg/mL | 0.292
[2], first compound 0.125 µg/mL, partner 0.5 µg/mL | 0.0966
[2], first compound 0.25 µg/mL, partner 0.125 µg/mL | 0.129
[2], first compound 0.25 µg/mL, partner 0.25 µg/mL | 0.0329
[2], first compound 0.25 µg/mL, partner 0.5 µg/mL | 0.0469
[7], first compound 0.0008 µg/mL, partner 0.105 µg/mL | 0.877
[7], first compound 0.0008 µg/mL, partner 0.21 µg/mL | 0.724
[7], first compound 0.0008 µg/mL, partner 0.42 µg/mL | 0.592
[7], first compound 0.0015 µg/mL, partner 0.105 µg/mL | 0.84
[7], first compound 0.0015 µg/mL, partner 0.2 µg/mL | 0.885
[7], first compound 0.0015 µg/mL, partner 0.21 µg/mL | 0.784
[7], first compound 0.0015 µg/mL, partner 0.4 µg/mL | 0.523
[7], first compound 0.0015 µg/mL, partner 0.42 µg/mL | 0.578
[7], first compound 0.0015 µg/mL, partner 0.8 µg/mL | 0.377
[7], first compound 0.003 µg/mL, partner 0.105 µg/mL | 0.811
[7], first compound 0.003 µg/mL, partner 0.2 µg/mL | 0.832
[7], first compound 0.003 µg/mL, partner 0.21 µg/mL | 0.72
[7], first compound 0.003 µg/mL, partner 0.4 µg/mL | 0.57
[7], first compound 0.003 µg/mL, partner 0.42 µg/mL | 0.507
[7], first compound 0.003 µg/mL, partner 0.8 µg/mL | 0.39

one replicate
Settings | fitness
[2], first compound 0.0625 µg/mL, partner 1 µg/mL | 0.0145
[2], first compound 0.125 µg/mL, partner 1 µg/mL | 0.012
[2], first compound 0.25 µg/mL, partner 1 µg/mL | 0.0104
[2], first compound 0.5 µg/mL, partner 0.125 µg/mL | 0.0313
[2], first compound 0.5 µg/mL, partner 0.25 µg/mL | 0.0362
[2], first compound 0.5 µg/mL, partner 0.5 µg/mL | 0.032
[7], first compound 0.0008 µg/mL, partner 0.2 µg/mL | 0.875
[7], first compound 0.0008 µg/mL, partner 0.4 µg/mL | 0.648
[7], first compound 0.0008 µg/mL, partner 0.8 µg/mL | 0.419
[7], first compound 0.006 µg/mL, partner 0.2 µg/mL | 0.532
[7], first compound 0.006 µg/mL, partner 0.4 µg/mL | 0.359
[7], first compound 0.006 µg/mL, partner 0.8 µg/mL | 0.212

Settings | Bliss interaction score
[3] | -0.0837
[4] | 0.0353
[5] | -0.0532
[6] | 0.225

CC1(C)S[C@@H]2[C@H](NC(=O)[C@H](N)c3ccc(O)cc3)C(=O)N2[C@H]1C(=O)O [Amoxicillin] + CC[C@H](C)[C@H](N)C1=N[C@H](C(=O)N[C@@H](CC(C)C)C(=O)N[C@H](CCC(=O)O)C(=O)N[C@H](C(=O)N[C@H]2CCCCNC(=O)[C@H](CC(N)=O)NC(=O)[C@@H](CC(=O)O)NC(=O)[C@H](Cc3cnc[nH]3)NC(=O)[C@@H](Cc3ccccc3)NC(=O)[C@H]([C@@H](C)CC)NC(=O)[C@@H](CCCN)NC2=O)[C@@H](C)CC)CS1 [Bacitracin]
[8], partner 75 µg/mL
Settings | fitness
first compound 0.0625 µg/mL | 0.0143
first compound 0.125 µg/mL | 0.0081
first compound 0.25 µg/mL | 0.0047

main component drawn
Settings | Bliss interaction score
[3] | -0.101
[4] | -0.0167
[5] | 0.0659
[6] | 0.104

CO/N=C(\C(=O)N[C@@H]1C(=O)N2C(C(=O)[O-])=C(C[N+]3(C)CCCC3)CS[C@H]12)c1csc(N)n1 [Cefepime] + CC(C1CCC(C(O1)OC2C(CC(C(C2O)OC3C(C(C(CO3)(C)O)NC)O)N)N)N)NC [Gentamicin]
fitness, [8]
Settings | partner 0.375 µg/mL | partner 0.5 µg/mL | partner 0.75 µg/mL | partner 1 µg/mL | partner 1.5 µg/mL | partner 2 µg/mL
first compound 0.125 µg/mL | 0.954 | 0.871 | 0.94 | ≥ 1 | 0.916 | ≥ 1
first compound 0.25 µg/mL | 0.857 | 0.816 | 0.837 | 0.906 | 0.787 | 0.966
first compound 0.5 µg/mL | 0.799 | 0.757 | 0.818 | 0.804 | 0.744 | 0.87

fitness, [7], main component drawn
Settings | first compound 0.007 µg/mL | first compound 0.0078 µg/mL | first compound 0.014 µg/mL | first compound 0.0155 µg/mL | first compound 0.028 µg/mL | first compound 0.031 µg/mL
partner 2 µg/mL | 0.994 | 1 | ≥ 1 | 0.964 | 0.926 | 0.493
partner 4 µg/mL | 0.996 | ≥ 1 | 0.99 | 0.974 | 0.932 | –
partner 8 µg/mL | 0.97 | 0.972 | ≥ 1 | 0.971 | 0.885 | 0.439

main component drawn
Settings | Bliss interaction score
[3] | -0.134
[4] | 0.0966
[5] | -0.0492
[6] | 0.0531
